We go through ten molecules from ChEMBL document CHEMBL2385014, “Melanogenesis inhibitory daphnane diterpenoids from the flower buds of Daphne genkwa” (Bioorg Med Chem Lett, 2013).

Experiment [1] has as its system B16. The experiment in a line: Inhibition of melanin production in alpha-MSH stimulated mouse B16 cells after 72 hrs by spectrophotometry. The class given is functional, cell-based. Particulars: for IC50: B16, 72 h.
The subject of experiment [2] is B16. Put plainly: Cytotoxicity against alpha-MSH stimulated mouse B16 cells after 72 hrs by MTT assay. Format: cell-based. Conditions: B16, 72 h. Background: Tetrazolium assays rely on reduction of a dye to a coloured formazan, in cell work by metabolically active cells.

Structures are written as SMILES.

As to `C=C(C)[C@@]12OC3(/C=C/C=C/CCCCC)O[C@@H]1[C@@H]1[C@@H]4O[C@]4(CO)[C@@H](O)[C@]4(O)C(=O)C(C)=C[C@H]4[C@@]1(O3)[C@H](C)[C@H]2OC(=O)CC`, in experiment [1], the inhibition result is “Dose-dependent effect” and the IC50 was 0.19 µM. The IC50 in experiment [2] stood at 28 µM.
On the same counts, the results for `C=C(C)[C@@]12O[C@@]3(/C=C/C=C/CCCCC)O[C@@H]1[C@@H]1[C@@H]4O[C@]4(CO)[C@@H](O)[C@]4(O)C(=O)C(C)=C[C@H]4[C@@]1(O3)[C@H](C)[C@H]2OC(C)=O` [YUANHUADINE] are “Dose-dependent effect”, 0.06 µM and 22 µM.
As to `C=C(C)[C@@]12OC3(C)O[C@@H]1[C@@H]1C=C(CO)C[C@]4(O)C(=O)C(C)=C[C@H]4[C@@]1(O3)[C@H](C)[C@H]2OC(=O)c1ccccc1`, the results for the 50% inhibitory concentration (IC50) in experiment [1] and in experiment [2] were 2.3 µM and 6.6 µM, respectively.
For the molecule `C=C(C)[C@@]12OC3(C)O[C@@H]1[C@@H]1C=C(CO)C[C@]4(O)C(=O)C(C)=C[C@H]4[C@@]1(O3)[C@H](C)[C@H]2OC(C)=O`, in experiment [1], the inhibition result is “Dose-dependent effect” and half-maximal inhibition (IC50) required 4.9 µM. The molecule also had an IC50 in experiment [2] above 30 µM.
With `C=C(C)[C@]12C[C@@H](C)[C@@]34OC(c5ccccc5)(O[C@@H]1[C@@H]3[C@H](O)[C@](O)(COC(=O)/C=C/C=C/CCCCC)[C@@H](O)[C@@]1(O)[C@H]4C[C@H](C)[C@@H]1O)O2`, in experiment [1], the inhibition result is “Dose-dependent effect” and the 50% inhibitory concentration (IC50) was determined as 0.57 µM. In addition, the IC50 in experiment [2] is above 30 µM.
`C=C(C)[C@@]12O[C@@]3(/C=C/C=C/CCCCC)O[C@@H]1[C@@H]1[C@@H]4O[C@]4(CO)[C@@H](O)[C@]4(O)C(=O)C(C)=C[C@H]4[C@@]1(O3)[C@H](C)[C@H]2OC(=O)c1ccccc1` [GNIDILATIDIN]: in experiment [1], the inhibition entry is “Dose-dependent effect” and half-maximal inhibition (IC50) required 0.16 µM. The IC50 in experiment [2] was above 30 µM.
`C=C(C)[C@]12C[C@@H](C)[C@@]34OC(c5ccccc5)(O[C@@H]1[C@@H]3[C@H](O)[C@](O)(CO)[C@@H](O)[C@@]1(O)[C@H]4C[C@H](C)[C@@H]1O)O2`: in experiment [1], the inhibition entry is “Dose-dependent effect” and the IC50 is 9 µM. The molecule further showed a half-inhibitory concentration (IC50) in experiment [2] above 30 µM.
Molecule `OC[C@H]1O[C@@H](Oc2ccc(O)cc2)[C@H](O)[C@@H](O)[C@@H]1O` [ARBUTIN] yielded a half-maximal inhibitory concentration (IC50) in experiment [1] of 140 µM.
On to `C=C(C)[C@]12C[C@@H](C)[C@@]34OC(c5ccccc5)(O[C@@H]1[C@@H]3[C@H](O)[C@](O)(COC(=O)c1ccccc1)[C@@H](O)[C@@]1(O)[C@H]4C[C@H](C)[C@@H]1O)O2`, for which the inhibition entry in experiment [1] is “Dose-dependent effect”. Moreover, the IC50 was 2 µM in experiment [1] and above 30 µM in experiment [2].
For `C=C(C)[C@@]12OCO[C@@H]1[C@@H]1[C@@H]3O[C@]3(CO)[C@@H](O)[C@]3(O)C(=O)C(C)=C[C@H]3[C@@]1(Oc1ccccc1)[C@H](C)[C@H]2OC(=O)c1ccccc1` [GENKWADAPHNIN], in that order: “Dose-dependent effect”, 0.18 µM and above 30 µM.

What is called IC50 is the midpoint of a concentration-inhibition curve. Lower therefore signals greater potency.
